Test results reported in ChEMBL document CHEMBL1201862, “PubChem BioAssay data set” (2004).
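Where inhibition never reached the appropriate level, the endpoint shown equals the highest concentration tested. Otherwise, values were interpolated linearly from a five-concentration, 48-hour dose response in 96-well plates. GI50 is the concentration that inhibits growth by half.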 The source made the active and inactive calls. Cut-off read from the data, not from the text of the source: active = GI50 up to about 1.1 µM and inactive = higher.

Legend:
Experiment in all cases: NCI-60 cell line screen, 48 h
EKVX = test system: EKVX
MCF7 = test system: MCF7
ACHN = test system: ACHN
IGROV-1 = test system: IGROV-1
HCT-116 = test system: HCT-116
OVCAR-3 = test system: OVCAR-3
SK-OV-3 = test system: SK-OV-3
RPMI-8226 = test system: RPMI-8226
T47D = test system: T47D
A549 = test system: A549
TK-10 = test system: TK-10
SF-295 = test system: SF-295
NCI-H460 = test system: NCI-H460
SNB-75 = test system: SNB-75
UACC-62 = test system: UACC-62
DU-145 = test system: DU-145
HT-29 = test system: HT-29
COLO 205 = test system: COLO 205
NCI-H522 = test system: NCI-H522

| Structure (SMILES) | GI50 (EKVX) | GI50 (MCF7) | GI50 (ACHN) | GI50 (IGROV-1) | GI50 (HCT-116) | GI50 (OVCAR-3) | GI50 (SK-OV-3) | GI50 (RPMI-8226) | GI50 (T47D) | GI50 (A549) | GI50 (TK-10) | GI50 (SF-295) | GI50 (NCI-H460) | GI50 (SNB-75) | GI50 (UACC-62) | GI50 (DU-145) | GI50 (HT-29) | GI50 (COLO 205) | GI50 (NCI-H522) |
| --- | --- | --- | --- | --- | --- | --- | --- | --- | --- | --- | --- | --- | --- | --- | --- | --- | --- | --- | --- |
| Nc1ccccc1/C=C\c1ccccc1 | > 100 µM (inactive) | > 100 µM (inactive) | > 100 µM (inactive) | > 100 µM (inactive) | > 100 µM (inactive) | > 100 µM (inactive) | > 100 µM (inactive) | > 100 µM (inactive) | > 100 µM (inactive) | > 100 µM (inactive) | > 100 µM (inactive) | > 100 µM (inactive) | > 100 µM (inactive) | > 100 µM (inactive) | > 100 µM (inactive) | > 100 µM (inactive) | > 100 µM (inactive) |  |  |
| CCOC(=O)c1c(-c2ccc(Cl)cc2)c(C#N)c(=S)n(C2OC(COC(C)=O)C(OC(C)=O)C(OC(C)=O)C2OC(C)=O)c1-c1ccccc1 (configuration not stated) |  | > 100 µM (inactive) | > 100 µM (inactive) | > 100 µM (inactive) | > 100 µM (inactive) | > 100 µM (inactive) | > 100 µM (inactive) | > 100 µM (inactive) | > 100 µM (inactive) | > 100 µM (inactive) | > 100 µM (inactive) | > 100 µM (inactive) | > 100 µM (inactive) | 21.6 µM (inactive) | > 100 µM (inactive) | > 100 µM (inactive) | > 100 µM (inactive) | > 100 µM (inactive) |  |
| Cc1ccc(S(=O)(=O)n2cc(/C=C/C#N)c(-c3cn(S(=O)(=O)c4ccc(C)cc4)cc3-c3cn(S(=O)(=O)c4ccc(C)cc4)cc3/C=C/C#N)c2)cc1 | > 100 µM (inactive) |  | > 100 µM (inactive) | > 100 µM (inactive) | > 100 µM (inactive) | > 100 µM (inactive) | > 100 µM (inactive) | 17.4 µM (inactive) | > 100 µM (inactive) |  | 40.4 µM (inactive) | 44.8 µM (inactive) |  | > 100 µM (inactive) | > 100 µM (inactive) | > 100 µM (inactive) | > 100 µM (inactive) | 58.7 µM (inactive) | > 100 µM (inactive) |
| COc1nc(-c2c[nH]c3ccccc23)cnc1N | 6.35 µM (inactive) | 2.85 µM (inactive) | 14.2 µM (inactive) | 19.6 µM (inactive) | 21.7 µM (inactive) | 39.6 µM (inactive) | 30.9 µM (inactive) | 1.01 µM (active) | 1.56 µM (inactive) | 31.2 µM (inactive) | > 100 µM (inactive) | 29.4 µM (inactive) | 26.4 µM (inactive) |  | 16.4 µM (inactive) | 23.4 µM (inactive) | 19.3 µM (inactive) | 29 µM (inactive) |  |
| O=C(/C=C/c1cccc([N+](=O)[O-])c1)c1ccc([N+](=O)[O-])cc1 | > 100 µM (inactive) |  | > 100 µM (inactive) | > 100 µM (inactive) | > 100 µM (inactive) | > 100 µM (inactive) | > 100 µM (inactive) |  |  | > 100 µM (inactive) | > 100 µM (inactive) | > 100 µM (inactive) | > 100 µM (inactive) | > 100 µM (inactive) | > 100 µM (inactive) |  | > 100 µM (inactive) | > 100 µM (inactive) | > 100 µM (inactive) |
| COc1ccc2c(c1)CN1C(=N2)CSC1c1cc([N+](=O)[O-])ccc1Cl (configuration not stated) | 23.6 µM (inactive) | 28.2 µM (inactive) | 44.7 µM (inactive) | 58.7 µM (inactive) | 27.2 µM (inactive) |  | 45.3 µM (inactive) | 21 µM (inactive) | 32.4 µM (inactive) | 33.2 µM (inactive) | > 100 µM (inactive) | 39.4 µM (inactive) | 31.9 µM (inactive) | 52.1 µM (inactive) | 23.2 µM (inactive) |  | 24.7 µM (inactive) | 30.8 µM (inactive) | 32.3 µM (inactive) |
| O=S(=O)(O)c1ccc2c(/N=N/c3ccc(Cl)cc3)c(O)ccc2c1 | > 100 µM (inactive) |  | > 100 µM (inactive) | > 100 µM (inactive) | > 100 µM (inactive) | > 100 µM (inactive) | > 100 µM (inactive) | > 100 µM (inactive) | 89.3 µM (inactive) | > 100 µM (inactive) | > 100 µM (inactive) | > 100 µM (inactive) |  | > 100 µM (inactive) | > 100 µM (inactive) | > 100 µM (inactive) | > 100 µM (inactive) | > 100 µM (inactive) | > 100 µM (inactive) |
| O=C1Nc2ccccc2/C1=N/Nc1ncccc1[N+](=O)[O-] | 5.08 µM (inactive) | 3.19 µM (inactive) | 4.69 µM (inactive) | 2.09 µM (inactive) | 4.92 µM (inactive) | 6.25 µM (inactive) | 12.1 µM (inactive) | 3.15 µM (inactive) |  | 18 µM (inactive) | 14.1 µM (inactive) | 17.2 µM (inactive) | 16.7 µM (inactive) | 1.39 µM (inactive) | 10.6 µM (inactive) | 14.6 µM (inactive) | 6.12 µM (inactive) |  | 9.71 µM (inactive) |
| CC1=CC(=O)/C(=C/NC(=S)c2ccccc2)C(=O)O1 | > 100 µM (inactive) | > 100 µM (inactive) | > 100 µM (inactive) | > 100 µM (inactive) | > 100 µM (inactive) | > 100 µM (inactive) | > 100 µM (inactive) |  | > 100 µM (inactive) | > 100 µM (inactive) | > 100 µM (inactive) | > 100 µM (inactive) | > 100 µM (inactive) | > 100 µM (inactive) | > 100 µM (inactive) | > 100 µM (inactive) | > 100 µM (inactive) | > 100 µM (inactive) |  |
| Nc1ccn(C2OC(COP(=O)(O)OCC3OC(n4cc(F)c(=O)[nH]c4=O)CC3O)C(O)C2O)c(=O)n1 (configuration not stated) | > 100 µM (inactive) |  | 0.0447 µM (active) | > 34 µM (inactive) | 0.687 µM (active) | > 100 µM (inactive) | 26.7 µM (inactive) |  | 4.47 µM (inactive) | 0.0244 µM (active) |  | 0.0453 µM (active) | < 0.01 µM (active) | > 48.3 µM (inactive) | 0.0925 µM (active) | 0.0828 µM (active) | 4.3 µM (inactive) | 4.68 µM (inactive) | 14.6 µM (inactive) |
| O=C(C[N+]1(c2ccccc2)CCOCC1)c1ccccc1 | 96.6 µM (inactive) |  | > 100 µM (inactive) | > 100 µM (inactive) | > 100 µM (inactive) | > 100 µM (inactive) |  |  | > 100 µM (inactive) | > 100 µM (inactive) | > 100 µM (inactive) | > 100 µM (inactive) | > 100 µM (inactive) | > 100 µM (inactive) | > 100 µM (inactive) | > 100 µM (inactive) | > 100 µM (inactive) |  | 45.7 µM (inactive) |
| CSCCC(NC(=O)Cc1ccc(C(=O)c2ccccc2)cc1)C(=O)N1CCN(CCCCN2c3ccccc3Sc3cc(N=[N+]=[N-])ccc32)CC1 (configuration not stated) | > 100 µM (inactive) | 73.3 µM (inactive) | > 100 µM (inactive) | > 100 µM (inactive) | 65.8 µM (inactive) | > 100 µM (inactive) | > 100 µM (inactive) | 68.1 µM (inactive) |  |  | > 100 µM (inactive) | 47.6 µM (inactive) | > 100 µM (inactive) |  | > 100 µM (inactive) | 47 µM (inactive) | > 100 µM (inactive) | > 100 µM (inactive) | 92 µM (inactive) |
